# Assay results as given in patent publication US20080039455A1, “PYRAZOLOPYRIMIDINES AND SALTS THEREOF, PHARMACEUTICAL COMPOSITIONS COMPRISING SAME, METHODS OF PREPARING SAME AND USES OF SAME” (priority 2006, published 2008).
# Target: T1, human recombinant ALK1 (GST fused to ALK1 intracellular domain [His142-Gln503]) (Homo sapiens, UniProt P37023)
# T1 construct: GST fused to ALK1 intracellular domain [His142-Gln503]; made in house
# T1 sequence (P37023 142-503): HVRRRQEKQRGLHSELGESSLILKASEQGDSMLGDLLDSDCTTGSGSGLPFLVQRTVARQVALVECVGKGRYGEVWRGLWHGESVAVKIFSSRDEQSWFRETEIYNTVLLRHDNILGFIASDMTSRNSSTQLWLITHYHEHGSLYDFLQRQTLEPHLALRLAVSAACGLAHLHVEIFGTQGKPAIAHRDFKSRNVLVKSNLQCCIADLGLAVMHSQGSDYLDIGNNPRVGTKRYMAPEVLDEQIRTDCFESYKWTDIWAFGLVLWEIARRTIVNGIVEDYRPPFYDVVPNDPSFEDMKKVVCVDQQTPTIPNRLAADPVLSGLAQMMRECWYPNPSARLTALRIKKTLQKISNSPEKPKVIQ
# Assay: ALK1-Kinase Flashplate-Assay
# Format: biochemical
# Settings: 0.5 μM ATP, biotinylated α-casein substrate; read-out: Assay 1 (ALK1-Kinase Flashplate-Assay IC50 class)
# Text: Biological Assay 1: ALK1-Kinase Flashplate-Assay
# ALK1 phosphorylates serine/threonine residues of the biotinylated substrate bovine α-casein in the presence of [γ-^33P]ATP. Detection of the radiolabeled phosphorylated product is achieved by binding to streptavidine-coated Flashplates. The biotin moieties of biotinylated casein bind with high affinity to the streptavidine. The radiolabeled biotinylated casein produced by the ALK1 kinase reaction is able to generate a […] signal when strepatavidine-mediated binding occurs to the scintillant-containing surface of the Flashplates due to the close proximity of the radiolabel and the scintillant. […] The signals obtained are therefore indicative of the ALK1 kinase activity. Measurement is performed in a Perkin-Elmer TopCount or Perkin-Elmer ViewLux instrument.
# Enzyme: Purified human recombinant ALK1 (GST fused to ALK1 intracellular domain [His142-Gln503]) produced in-house, aliquots stored at −80° C.;
# Diluted enzyme working solution: 2.5 ng/μl ALK1 (in assay buffer) freshly prepared and chilled on ice until use.
# Substrate: biotinylated bovine α-casein. Unbiotinylated casein obtained from Sigma was biotinylated by standard procedures using N-hydroxysuccinimide (NHS) ester of biotin.
# Substrate working solution: 0.83 μM ATP, 1.67 μM biotinylated a-casein, 7.4 nCi [γ-^33P]ATP/μl in assay buffer
# Assay plates: 384-well plates, small volume, white, Greiner (# 784075)
# Flashplates: Streptavidin-coated Flashplates, Perkin Elmer (384-well # SPM410A)
# Assay buffer: 50 mM Tris/HCl pH 8.0, 1 mM MnCl2, 1 mM DTT, 0.01% NP40, 0.5× Complete EDTA-free
# Stop solution: 33.3 μM ATP, 33.3 mM EDTA, 0.07% Triton X-100 in PBS
# Saturating buffer for Flashplates: 100 μM ATP, 0.2% Triton X-100 in PBS
# Sealing tape: Greiner (# 676080)
# Protocol for small volume 5 μl assay (all steps are performed at 20° C., pipetted with CyBi-Well and Multidrop Micro): • 1. 50 nl or 250 nl compound in 100% DMSO • 2. addition of 3 μl substrate working solution with CyBi-Well pipettor • 3. addition of 2 μl enzyme working solution with Multidrop Micro incubation for 60 min at room temperature • 4. addition of 15 μl Stop solution with CyBi-Well pipettor • 5. transfer of 18 μl assay mixture to Flashplates** with CyBi-Well pipettor incubation for at least 3 h at room temperature or over night at 4° C. to allow binding to the streptavidine-coated Flashplates • 6. washing the Flashplates 3 times with 50 μl PBS without Ca++ and Mg++ • 7. sealing with sealing tape • 8. Measurement in Topcount (60 sec/well) **Saturation of Flashplates: The Flashplates are preincubated for at least 1 hour with 50 μl saturating buffer. Remove 18 μl from the 50 μl and transfer 18 μl of the assay mixture to the Flashplate.
# Final concentrations, calculated for 5 μl reaction volume: ALK1 5 ng/well; 1 μM biotinylated α-casein; 0.5 μM ATP; 22 nCi/well [γ-^33P]ATP; 1 mM MnCl2; 1 mM DTT; 50 mM Tris-HCl; pH 8.0; 0.01% NP40; 0.5× Complete EDTA-free; 1% or 5% DMSO.
# The data were normalised (enzyme reaction without inhibitor=0% inhibition, enzyme reaction in the presence of 10 mM EDTA=100% inhibition) and IC50 values were calculated by a 4 parameter fit using an in-house software.
row,SMILES,IC50 [nM]
1,"O=C(O)/C=C/c1cccc(-c2cnn3ccc(NC4CCC(O)CC4)nc23)c1 (stereo not drawn) [Example 157, (E)-3-{3-[5-(4-Hydroxy-cyclohexylamino)-pyrazolo[1,5-a]pyrimidin-3-yl]-phenyl}-acrylic acid]",1000 to 10000
2,"OCc1cccc(-c2cnn3ccc(NC4CCC(O)CC4)nc23)c1 (stereo not drawn) [Example 158, 4-[3-(3-Hydroxymethyl-phenyl)-pyrazolo[1,5-a]pyrimidin-5-ylamino]-cyclohexanol]",1000 to 10000
3,"COc1cc(-c2cnn3ccc(NC4CCC(O)CC4)nc23)ccc1O (stereo not drawn) [Example 160, 4-[5-(4-Hydroxy-cyclohexylamino)-pyrazolo[1,5-a]pyrimidin-3-yl]-2-methoxy-phenol]",1000 to 10000
4,"COc1ccc(-c2cnn3ccc(NCCO)nc23)cn1 [Example 164, 2-[3-(6-Methoxy-pyridin-3-yl)-pyrazolo[1,5-a]pyrimidin-5-ylamino]-ethanol]",1000 to 10000
5,"COc1cc(-c2cnn3ccc(NCCO)nc23)ccc1O [Example 165, 4-[5-(2-Hydroxy-ethylamino)-pyrazolo[1,5-a]pyrimidin-3-yl]-2-methoxy-phenol]",< 1000
6,"COc1ccc(-c2cnn3ccc(NCc4cccnc4)nc23)cc1 [Example 167, [3-(4-Methoxy-phenyl)-pyrazolo[1,5-a]pyrimidin-5-yl]-pyridin-3-ylmethyl-amine]",1000 to 10000
7,"Oc1cccc(-c2cnn3ccc(NCc4cccnc4)nc23)c1 [Example 168, 3-{5-[(Pyridin-3-ylmethyl)-amino]-pyrazolo[1,5-a]pyrimidin-3-yl}-phenol]",< 1000
8,"OCc1cccc(-c2cnn3ccc(NCc4cccnc4)nc23)c1 [Example 170, (3-{5-[(Pyridin-3-ylmethyl)-amino]-pyrazolo[1,5-a]pyrimidin-3-yl}-phenyl)-methanol]",1000 to 10000
9,"COc1ccc(-c2cnn3ccc(NCc4cccnc4)nc23)cn1 [Example 171, [3-(6-Methoxy-pyridin-3-yl)-pyrazolo[1,5-a]pyrimidin-5-yl]-pyridin-3-ylmethyl-amine]",1000 to 10000
10,"Cc1csc(-c2cnn3ccc(NCc4cccnc4)nc23)c1 [Example 172, [3-(4-Methyl-thiophen-2-yl)-pyrazolo[1,5-a]pyrimidin-5-yl]-pyridin-3-ylmethyl-amine]",1000 to 10000
11,"COc1ccc(-c2cnn3ccc(Nc4ccc(N5CCOCC5)cc4)nc23)cc1 [Example 173, [3-(4-Methoxy-phenyl)-pyrazolo[1,5-a]pyrimidin-5-yl]-(4-morpholin-4-yl-phenyl)-amine]",1000 to 10000
12,"COc1cc(Nc2ccn3ncc(-c4cccc(C(N)=O)c4)c3n2)cc(OC)c1OC [Example 176, 3-[5-(3,4,5-Trimethoxy-phenylamino)-pyrazolo[1,5-a]pyrimidin-3-yl]-benzamide]",1000 to 10000
13,"COc1cccc(-c2cnn3ccc(Nc4cc(OC)c(OC)c(OC)c4)nc23)c1 [Example 178, [3-(3-Methoxy-phenyl)-pyrazolo[1,5-a]pyrimidin-5-yl]-(3,4,5-trimethoxy-phenyl)-amine]",1000 to 10000
14,"COc1cc(Nc2ccn3ncc(-c4cccc(C(C)=O)c4)c3n2)cc(OC)c1OC [Example 179, 1-{3-[5-(3,4,5-Trimethoxy-phenylamino)-pyrazolo[1,5-a]pyrimidin-3-yl]-phenyl}-ethanone]",1000 to 10000
15,"COc1cc(Nc2ccn3ncc(-c4cnn(C)c4)c3n2)cc(OC)c1OC [Example 182, [3-(1-Methyl-1H-pyrazol-4-yl)-pyrazolo[1,5-a]pyrimidin-5-yl]-(3,4,5-trimethoxy-phenyl)-amine]",1000 to 10000
16,"Cn1cc(-c2cnn3ccc(Nc4ccc(O)cc4)nc23)cn1 [Example 194, 4-[3-(1-Methyl-1H-pyrazol-4-yl)-pyrazolo[1,5-a]pyrimidin-5-ylamino]-phenol]",1000 to 10000
17,"CC(=O)c1cccc(-c2cnn3ccc(Nc4ccc(NS(=O)(=O)c5ccc(C)cc5)cc4)nc23)c1 [Example 201, N-{4-[3-(3-Acetyl-phenyl)-pyrazolo[1,5-a]pyrimidin-5-ylamino]-phenyl}-4-methyl-benzenesulfonamide]",1000 to 10000
18,"Nc1ccc(C(=O)Nc2ccc(Nc3ccn4ncc(-c5cnn(Cc6ccccc6)c5)c4n3)cc2)cc1 [Example 204, 4-Amino-N-{4-[3-(1-benzyl-1H-pyrazol-4-yl)-pyrazolo[1,5-a]pyrimidin-5-ylamino]-phenyl}-benzamide]",1000 to 10000
19,"NC(=O)c1cccc(-c2cnn3ccc(NCc4ccncc4)nc23)c1 [Example 213, 3-{5-[(Pyridin-4-ylmethyl)-amino]-pyrazolo[1,5-a]pyrimidin-3-yl}-benzamide]",1000 to 10000
20,"COc1cccc(-c2cnn3ccc(NCc4ccncc4)nc23)c1 [Example 215, [3-(3-Methoxy-phenyl)-pyrazolo[1,5-a]pyrimidin-5-yl]-pyridin-4-ylmethyl-amine]",1000 to 10000

# Now from value to compound:
row,IC50 [nM],SMILES
1,1000 to 10000,Cc1ccc(Nc2ccn3ncc(-c4cccc(N)c4)c3n2)cc1NS(C)(=O)=O [Example 186]
2,< 1000,"COc1cccc(-c2cnn3ccc(Nc4ccc(O)cc4)nc23)c1 [Example 192, 4-[3-(3-Methoxy-phenyl)-pyrazolo[1,5-a]pyrimidin-5-ylamino]-phenol]"
3,1000 to 10000,"CC(=O)c1cccc(-c2cnn3ccc(Nc4ccc(O)cc4)nc23)c1 [Example 193, 1-{3-[5-(4-Hydroxy-phenylamino)-pyrazolo[1,5-a]pyrimidin-3-yl]-phenyl}-ethanone]"
4,< 1000,"COc1cccc(-c2cnn3ccc(Nc4ccc(OC)nc4)nc23)c1 [Example 196, [3-(3-Methoxy-phenyl)-pyrazolo[1,5-a]pyrimidin-5-yl]-(6-methoxy-pyridin-3-yl)-amine]"
5,1000 to 10000,"COc1ccc(Nc2ccn3ncc(-c4cccc(NS(C)(=O)=O)c4)c3n2)cn1 [Example 197, N-{3-[5-(6-Methoxy-pyridin-3-ylamino)-pyrazolo[1,5-a]pyrimidin-3-yl]-phenyl}-methanesulfonamide]"
6,< 1000,"COc1ccc(Nc2ccn3ncc(-c4cnn(C)c4)c3n2)cn1 [Example 198, (6-Methoxy-pyridin-3-yl)-[3-(1-methyl-1H-pyrazol-4-yl)-pyrazolo[1,5-a]pyrimidin-5-yl]-amine]"
7,1000 to 10000,"COc1ccc(Nc2ccn3ncc(-c4cnn(Cc5ccccc5)c4)c3n2)cn1 [Example 199, [3-(1-Benzyl-1H-pyrazol-4-yl)-pyrazolo[1,5-a]pyrimidin-5-yl]-(6-methoxy-pyridin-3-yl)-amine]"
8,1000 to 10000,"COc1cccc(-c2cnn3ccc(Nc4ccc(NS(=O)(=O)c5ccc(C)cc5)cc4)nc23)c1 [Example 200, N-{4-[3-(3-Methoxy-phenyl)-pyrazolo[1,5-a]pyrimidin-5-ylamino]-phenyl}-4-methyl-benzenesulfonamide]"
9,< 1000,"Cc1ccc(Nc2ccn3ncc(-c4cccc(NS(C)(=O)=O)c4)c3n2)cc1NS(C)(=O)=O [Example 209, N-{5-[3-(3-Methanesulfonylamino-phenyl)-pyrazolo[1,5-a]pyrimidin-5-ylamino]-2-methyl-phenyl]-methanesulfonamide]"
10,< 1000,"Cc1ccc(Nc2ccn3ncc(-c4cnn(C)c4)c3n2)cc1NS(C)(=O)=O [Example 210, N-{2-Methyl-5-[3-(1-methyl-1H-pyrazol-4-yl)-pyrazolo[1,5-a]pyrimidin-5-ylamino]-phenyl}-methanesulfonamide]"
